Source: patent publication US6518268B1, “Telomerase inhibitors and methods of their use” (Geron Corporation, priority 1999, dated 2003)

How the values were obtained:
[1] = molecular target: T1, partially purified telomerase from a nuclear extract of HEK293 cells (Homo sapiens, UniProt O14746); assay: In vitro telomerase inhibition, membrane hybridization method (U.S. Pat. No. 5,760,062); format: biochemical; settings: for IC50: partially purified telomerase from nuclear extract of HEK293 cells; for residual activity of in vitro telomerase activity (in parenthesis): in the presence of the compound at a concentration of 10 μm
T1 construct: partially purified telomerase from a nuclear extract of HEK293 cells; endogenous in cells; host or cells: HEK293 cells, nuclear extract, partially purified
Method: Alternatively, telomerase inhibitory activity of the compounds was measured in accordance with a known method (U.S. Pat. No. 5,760,062). That is, a dimethyl sulfoxide (DMSO) solution of each agent was mixed with partially purified telomerase from a nuclear extract of HEK293 cells and incubated in the presence of an oligodeoxynucleotide to be used as the substrate and deoxynucleotide triphosphate. The obtained reacted product (DNA having a telomere sequence) was adsorbed on a membrane, and hybridization was carried out using a labeled oligonucleotide probe having a sequence complementary to the telomere sequence. The inhibition ratio was calculated based on the ratio of the signal of label on the membrane in the presence of the agent to the signal of label in the absence of the agent (control). Also, concentration of each agent which inhibits 50% of the enzyme activity based on the control was used as IC50.

[2] = molecular target: T2, telomerase in human renal carcinoma cell line ACHN (Homo sapiens, UniProt O14746); assay: Telomerase activity in extract of agent-treated ACHN cells (TRAP assay); format: cell-based; settings: contact 3 days
T2 construct: human renal carcinoma cell line ACHN for 3 days, and then a cell extract was prepared; endogenous in cells; host or cells: ACHN human renal carcinoma cells; CHAPS extract after 3 days of treatment
Method: That is, a cell extract was prepared using a buffer solution containing 0.5% CHAPS. Using the extract, TRAP (Telomeric Repeat Amplification Protocol) assay was carried out in vitro (TRAPEZE™ ELISA Telomerase Detection Kit, manufactured by Intergen). The ratio (%) of the enzyme activity in the extract from agent-treated cells to the enzyme activity in the extract from agent-untreated cells was calculated.

[3] = concentration 30 μM, read-out: Residual Enzyme Activity (%)
[4] = concentration 10 μM, read-out: Residual Enzyme Activity (%)

T2 sequence (O14746 whole entry): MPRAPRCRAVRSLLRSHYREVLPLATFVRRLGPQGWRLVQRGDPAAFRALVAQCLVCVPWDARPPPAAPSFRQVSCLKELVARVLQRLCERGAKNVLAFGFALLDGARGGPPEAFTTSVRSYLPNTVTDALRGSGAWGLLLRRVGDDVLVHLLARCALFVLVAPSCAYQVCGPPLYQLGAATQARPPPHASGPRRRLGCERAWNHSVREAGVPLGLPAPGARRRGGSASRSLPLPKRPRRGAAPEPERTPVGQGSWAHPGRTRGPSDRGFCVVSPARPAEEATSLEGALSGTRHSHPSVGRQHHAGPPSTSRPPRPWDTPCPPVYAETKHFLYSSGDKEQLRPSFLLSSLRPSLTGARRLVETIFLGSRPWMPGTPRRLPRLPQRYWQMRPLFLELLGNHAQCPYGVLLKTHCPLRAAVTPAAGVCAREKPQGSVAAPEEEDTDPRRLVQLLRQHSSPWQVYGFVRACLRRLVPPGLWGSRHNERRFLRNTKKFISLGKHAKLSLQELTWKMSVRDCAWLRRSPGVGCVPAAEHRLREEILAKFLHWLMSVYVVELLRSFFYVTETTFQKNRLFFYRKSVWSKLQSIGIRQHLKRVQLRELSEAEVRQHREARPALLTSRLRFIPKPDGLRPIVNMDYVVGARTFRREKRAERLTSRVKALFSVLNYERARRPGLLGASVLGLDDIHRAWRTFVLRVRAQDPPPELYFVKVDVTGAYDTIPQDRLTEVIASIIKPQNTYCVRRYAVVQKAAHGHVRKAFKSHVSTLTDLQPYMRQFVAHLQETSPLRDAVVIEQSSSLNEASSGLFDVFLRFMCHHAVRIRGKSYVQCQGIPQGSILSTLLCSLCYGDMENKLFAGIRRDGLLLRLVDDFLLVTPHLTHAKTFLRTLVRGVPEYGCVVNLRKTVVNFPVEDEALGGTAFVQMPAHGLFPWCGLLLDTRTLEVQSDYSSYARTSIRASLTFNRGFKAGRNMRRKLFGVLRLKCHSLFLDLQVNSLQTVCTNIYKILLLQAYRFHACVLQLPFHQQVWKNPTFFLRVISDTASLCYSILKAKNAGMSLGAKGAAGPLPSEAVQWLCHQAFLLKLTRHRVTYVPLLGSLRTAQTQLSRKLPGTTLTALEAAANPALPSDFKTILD
T2 sequence (O60832 whole entry partner): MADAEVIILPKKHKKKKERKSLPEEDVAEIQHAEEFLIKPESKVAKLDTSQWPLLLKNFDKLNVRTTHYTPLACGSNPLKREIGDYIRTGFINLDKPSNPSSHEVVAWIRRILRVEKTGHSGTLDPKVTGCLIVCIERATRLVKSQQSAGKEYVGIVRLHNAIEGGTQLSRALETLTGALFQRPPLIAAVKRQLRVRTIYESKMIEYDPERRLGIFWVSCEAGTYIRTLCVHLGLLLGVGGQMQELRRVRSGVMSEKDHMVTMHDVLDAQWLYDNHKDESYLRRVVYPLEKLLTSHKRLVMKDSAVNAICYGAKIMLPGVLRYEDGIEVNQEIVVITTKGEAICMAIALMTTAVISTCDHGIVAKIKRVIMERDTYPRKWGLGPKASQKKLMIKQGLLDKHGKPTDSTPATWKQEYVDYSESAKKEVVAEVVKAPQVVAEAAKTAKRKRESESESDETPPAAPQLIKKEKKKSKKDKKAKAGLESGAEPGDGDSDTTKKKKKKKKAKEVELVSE
T2 sequence (Q9NPE3 whole entry partner): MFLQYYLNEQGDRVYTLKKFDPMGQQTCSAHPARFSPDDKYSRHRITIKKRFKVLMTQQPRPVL
T2 sequence (Q9NX24 whole entry partner): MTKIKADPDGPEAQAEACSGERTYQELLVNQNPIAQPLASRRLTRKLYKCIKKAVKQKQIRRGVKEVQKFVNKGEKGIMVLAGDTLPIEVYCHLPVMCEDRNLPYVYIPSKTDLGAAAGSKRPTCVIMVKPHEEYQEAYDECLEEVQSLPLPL
T2 sequence (Q9NY12 whole entry partner): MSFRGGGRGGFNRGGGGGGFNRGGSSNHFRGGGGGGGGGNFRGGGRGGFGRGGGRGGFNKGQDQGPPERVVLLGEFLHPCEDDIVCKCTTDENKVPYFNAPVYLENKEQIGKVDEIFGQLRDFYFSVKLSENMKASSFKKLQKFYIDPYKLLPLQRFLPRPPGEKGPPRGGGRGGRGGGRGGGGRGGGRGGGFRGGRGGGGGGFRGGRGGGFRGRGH
T1 sequence (O14746 whole entry): as the sequence (O14746 whole entry) above
T1 sequence (O60832 whole entry partner): as the sequence (O60832 whole entry partner) above
T1 sequence (Q9NPE3 whole entry partner): as the sequence (Q9NPE3 whole entry partner) above
T1 sequence (Q9NX24 whole entry partner): as the sequence (Q9NX24 whole entry partner) above
T1 sequence (Q9NY12 whole entry partner): as the sequence (Q9NY12 whole entry partner) above

Cc1ccc([S+]([O-])c2ccc([N+](=O)[O-])cc2C=C2SC(=O)NC2=O)cc1 (stereo not drawn) [Compound 4]
IC50 [1]: 30 µM | Residual Enzyme Activity (%) ([2]; concentration 10 μM): 16%

Cc1ccc(S(=O)(=O)c2ccc([N+](=O)[O-])cc2C=C2SC(=O)NC2=O)cc1 [Compound 5]
IC50 [1]: 23 µM | Residual Enzyme Activity (%) ([2]; concentration 10 μM): 16%

Cc1ccc(Oc2cccc(C=C3SC(=O)NC3=O)c2)cc1 [Compound 12]
IC50 [1]: 5.8 µM | Residual Enzyme Activity (%) ([2]; concentration 100 μM): 26%

O=C1NC(=O)C(=Cc2ccc(Oc3ccccc3)cc2)S1 [Compound 14]
IC50 [1]: 4 µM | Residual Enzyme Activity (%) ([2]; concentration 100 μM): 47%

O=C1NC(=O)C(=Cc2cc([N+](=O)[O-])ccc2OCc2ccccc2)S1 [Compound 16]
IC50 [1]: 26 µM | Residual Enzyme Activity (%) ([2]; concentration 100 μM): 0%

Cc1ccc(COc2ccc([N+](=O)[O-])c(C=C3SC(=O)NC3=O)c2)cc1 [Compound 21]
IC50 [1]: 4.3 µM | Residual Enzyme Activity (%) ([2]; concentration 30 μM): 35%

O=C1NC(=S)SC1=Cc1cc([N+](=O)[O-])ccc1Sc1ccc(Cl)cc1 [Compound 37]
IC50 [1]: 6 µM | Residual Enzyme Activity (%) ([2]; concentration 30 μM): 39%

CCN(CC)C(=O)c1cc(C=C2SC(=O)NC2=O)c(Sc2ccc(Cl)cc2)s1 [Compound 54]
IC50 [1]: 7.4 µM | remaining activity at 30 µM [2, 3]: 50%

CN1CCN(C(=O)c2cc(C=C3SC(=O)NC3=O)c(Sc3ccc(Cl)cc3)s2)CC1 [Compound 56]
IC50 [1]: 7.9 µM | remaining activity at 30 µM [2, 3]: 26%

O=C1NC(=O)C(=Cc2cc(C(=O)N3CCOCC3)sc2Sc2ccc(Cl)cc2)S1 [Compound 57]
IC50 [1]: 54 µM | remaining activity at 30 µM [2, 3]: 24%

O=C1NC(=O)C(=Cc2cc(C(=O)c3ccc(Cl)cc3)c(S(=O)(=O)c3ccc(Cl)cc3)s2)S1 [Compound 66]
IC50 [1]: 3.7 µM | Residual Enzyme Activity (%) ([2]; concentration 30 μM): 0%

O=C1NC(=O)/C(=C/c2cc([N+](=O)[O-])ccc2[S+]([O-])c2ccc(Cl)cc2)S1 (stereo not drawn) [Compound 68]
IC50 [1]: 2.7 µM | remaining activity at 10 µM [2, 4]: 18%

O=C1NC(=O)C(=Cc2cc([N+](=O)[O-])ccc2S(=O)(=O)c2ccc(Cl)cc2)S1 [Compound 69]
IC50 [1]: 0.48 µM | remaining activity at 10 µM [2, 4]: 16%

O=C1NC(=O)C(=Cc2cc([N+](=O)[O-])ccc2S(=O)(=O)Cc2ccccc2)S1 [Compound 78]
IC50 [1]: 5.5 µM | remaining activity at 10 µM [2, 4]: 25%

Cc1ccc([S+]([O-])c2ccc(C=C3SC(=O)NC3=O)cc2[N+](=O)[O-])cc1 (stereo not drawn) [Compound 82]
residual activity of in vitro telomerase activity (in parenthesis) [1]: (51%) | Residual Enzyme Activity (%) ([2]; concentration 3 μM): 23%

Cc1ccc(S(=O)(=O)c2ccc(C=C3SC(=O)NC3=O)cc2[N+](=O)[O-])cc1 [Compound 83]
residual activity of in vitro telomerase activity (in parenthesis) [1]: (58%) | Residual Enzyme Activity (%) ([2]; concentration 10 μM): 32%

O=C1NC(=O)C(=Cc2cc([N+](=O)[O-])ccc2S(=O)(=O)C2CCCCC2)S1 [Compound 86]
IC50 [1]: 8 µM | remaining activity at 10 µM [2, 4]: 44%

Cc1ccc(Sc2ccc(-c3ccccn3)cc2C=C2SC(=O)NC2=O)cc1 [Compound 89]
residual activity of in vitro telomerase activity (in parenthesis) [1]: (56%) | Residual Enzyme Activity (%) ([2]; concentration 30 μM): 2%

Cc1ccc(Sc2ccc(-c3cccs3)cc2C=C2SC(=O)NC2=O)cc1 [Compound 92]
IC50 [1]: 5.6 µM | remaining activity at 30 µM [2, 3]: 41%

CC(=O)c1ccc(Sc2ccc(C)cc2)c(C=C2SC(=O)NC2=O)c1 [Compound 97]
IC50 [1]: 5.6 µM | remaining activity at 30 µM [2, 3]: 41%

Cc1ccc([S+]([O-])c2ccc(C(F)(F)F)cc2C=C2SC(=O)NC2=O)cc1 (stereo not drawn) [Compound 113]
residual activity of in vitro telomerase activity (in parenthesis) [1]: (68%) | Residual Enzyme Activity (%) ([2]; concentration 30 μM): 37%

O=C1NC(=O)C(=Cc2cc([N+](=O)[O-])ccc2[S+]([O-])c2ccncc2)S1 (stereo not drawn) [Compound 120]
IC50 [1]: 9.3 µM | Residual Enzyme Activity (%) ([2]; concentration 10 μM): 40%

CCc1ccc([S+]([O-])c2ccc([N+](=O)[O-])cc2/C=C2\SC(=O)NC2=O)cc1 (stereo not drawn) [Compound 133]
IC50 [1]: 9.1 µM | remaining activity at 10 µM [2, 4]: 11%

O=C1NC(=O)C(=Cc2cc([N+](=O)[O-])ccc2[S+]([O-])c2cccc(Cl)c2)S1 (stereo not drawn) [Compound 134]
residual activity of in vitro telomerase activity (in parenthesis) [1]: (59%) | Residual Enzyme Activity (%) ([2]; concentration 10 μM): 4%

O=C1NC(=O)/C(=C/c2cc([N+](=O)[O-])ccc2[S+]([O-])c2ccc(Cl)c(Cl)c2)S1 (stereo not drawn) [Compound 135]
IC50 [1]: 4.5 µM | remaining activity at 3 µM ([2]; concentration 3 μM, read-out: Residual Enzyme Activity (%)): 14%

Cc1ccc([S+]([O-])c2ccc(C=C3SC(=O)NC3=O)cc2Cl)cc1 (stereo not drawn) [Compound 141]
residual activity of in vitro telomerase activity (in parenthesis) [1]: (64%) | Residual Enzyme Activity (%) ([2]; concentration 30 μM): 26%

Cc1ccc([S+]([O-])c2ccc(C=C3SC(=O)NC3=O)cc2Br)cc1 (stereo not drawn) [Compound 143]
residual activity of in vitro telomerase activity (in parenthesis) [1]: (62%) | Residual Enzyme Activity (%) ([2]; concentration 30 μM): 36%
